Measurements published in patent publication US20140107107A1, “PHARMACEUTICAL FORMULATION CONTAINING THIENOTRIAZOLODIAZEPINE COMPOUNDS” (Oncoethix SA, priority 2012, published 2014).

How the values were obtained:
[1] = pharmacokinetics and oral bioavailability in dogs; type: in vivo; settings: male, beagle, dog, plasma, 1 mg/kg IV
Procedure: Blood samples were collected from the jugular vein of each animal at 0 (pre-dose), 5, 15, and 30 minutes and 1, 2, 4, 8, 12, and 24 hours following intravenous administration and at 0 (pre-dose), 15 and 30 minutes and 1, 2, 4, 8, 12, and 24 hours following oral gavage administration. The amount of compound (1-1) present in each sample was detected using a qualified LC-MS/MS method with a lower limit of quantification of 0.5 ng/mL. The area under the plasma concentration-time curve (AUC) was determined by use of the linear trapezoidal rule up to the last measurable concentration without extrapolation of the terminal elimination phase to infinity. The elimination half-life (t1/2) was calculated by least-squares regression analysis of the terminal linear part of the log concentration-ime curve. The maximum plasma concentration (Cmax) and the time to Cmax (tmax) were derived directly from the plasma concentration data. The oral bioavailability (F) was calculated by dividing the dose normalized AUC after oral administration by the dose normalized AUC after intravenous administration and reported as percentages (%).

[2] = oral exposure in the rat (pharmacokinetics); type: in vivo, Hsd:Sprague Dawley rats; settings: 1 mg/kg intravenous
Procedure: The oral bioavailability of three formulations of solid dispersions of compound (1-1) was determined in rats. The three dispersions chosen were the 25% dispersion of compound (1-1) in PVP, the 25% dispersion of compound (1-1) in HPMCAS-MG, and the 50% dispersion of compound (1-1) in HPMCAS-MG. The animals used in the study were Specific Pathogen Free (SPF) Hsd:Sprague Dawley rats obtained from the Central Animal Laboratory at the University of Turku, Finland. The rats were originally purchased from Harlan, The Netherlands. The rats were female and were ten weeks of age, and 12 rats were used in the study. The animals were housed in polycarbonate Makrolon II cages (three animals per cage), the animal room temperature was 21+/−3° C., the animal room relative humidity was 55+/−15%, and the animal room lighting was artificial and was cycled for 12 hour light and dark periods (with the dark period between 18:00 and 06:00 hours). Aspen chips (Tapvei Oy, Estonia) were used for bedding, and bedding was changed at least once per week. Food and water was provided prior to dosing the animals but was removed during the first two hours after dosing.
The oral dosing solutions containing the 25% dispersion of compound (1-1) in PVP, the 25% dispersion of compound (1-1) in HPMCAS-MG, and the 50% dispersion of compound (1-1) in HPMCAS-MG were prepared by adding a pre-calculated amount of sterile water for injection to containers holding the dispersion using appropriate quantities to obtain a concentration of 0.75 mg/mL of compound (1-1). The oral dosing solutions were subjected to vortex mixing for 20 seconds prior to each dose. The dosing solution for intravenous administration contained 0.25 mg/mL of compound (1-1) and was prepared by dissolving 5 mg of compound (1-1) in a mixture containing 4 mL of polyethylene glycol with an average molecular weight of 400 Da (PEG400), 4 mL of ethanol (96% purity), and 12 mL of sterile water for injection. The dosing solution containing the 25% dispersion of compound (1-1) in PVP was used within 30 minutes after the addition of water. The dosing solutions containing the 25% dispersion of compound (1-1) in HPMCAS-MG and the 50% dispersion of compound (1-1) in HPMCAS-MG were used within 60 minutes of after the addition of water. A dosing volume of 4 mL/kg was used to give dose levels of compound (1-1) of 1 mg/kg for intravenous administration and 3 mg/kg for oral administration.
Blood samples of approximately 50 μL were collected into Eppendorf tubes containing 5 μL of ethylenediaminetetraacetic acid (EDTA) solution at time points of 0.25, 0.5, 1, 2, 4, 8, 12, and 24 hours after dosing, with each sample collected within a window of 5 minutes from the prescribed time point. From each sample, 20 μL of plasma was obtained and stored at dry ice temperatures for analysis. Analysis of each sample for the concentration of compound (1-1) was performed using a validated liquid chromatography tandem mass spectrometry (LC-MS/MS) method with a lower limit of quantitation of 0.5 ng/mL.
Pharmacokinetic parameters were calculated with the Phoenix WinNonlin software package (version 6.2.1, Pharsight Corp., CA, USA) with standard noncompartmental methods. The elimination phase half-life (t1/2) was calculated by least-squares regression analysis of the terminal linear part of the log concentration-time curve. The area under the plasma concentration-time curve (AUC) was determined by use of the linear trapezoidal rule up to the last measurable concentration and thereafter by extrapolation of the terminal elimination phase to infinity. The mean residence time (MRT), representing the average amount of time a compound remains in a compartment or system, was calculated by extrapolating the drug concentration profile to infinity. The maximum plasma concentration (Cmax) and the time to Cmax (tmax) were derived directly from the plasma concentration data. […]

[3] = female, Hsd:Sprague Dawley, plasma

Cc1sc2c(c1C)C(c1ccc(Cl)cc1)=N[C@@H](CC(=O)Nc1ccc(O)cc1)c1nnc(C)n1-2 [Compound (1-1), 2-[(6S)-4-(4-chlorophenyl)-2,3,9-trimethyl-6H-thienol[3,2f]-[1,2,4]triazolo[4,3-a][1,4]diazepin-6-yl]-N-(4-hydroxyphenyl)acetamide dihydrate]
half-life [1]: 90 min | Cmax ([1]; average of three dogs): 769 ng/mL | Tmax ([1]; average of three dogs): 4.98 min | AUC ([1]; to last measurable concentration): 889 ng·h/mL | CI/F [2]: 13.4 mL/min/kg | Cmax [2, 3]: 730 ng/mL | MRT [2, 3]: 7.4 h | Tmax [2, 3]: 15 min | half-life [2, 3]: 510 min | AUC ([2]; female, Hsd:Sprague Dawley, plasma, extrapolated to infinity): 1240 ng·h/mL
